In US8901309B2, “Fused triazoles for the treatment or prophylaxis of mild cognitive impairment” (Takeda Pharmaceutical Company Limited, priority 2010, dated 2014):

Test system: Aβ42 in hippocampi of C57BL/6J mice
Assay: Hippocampal soluble Aβ42 ELISA in mice after oral administration
Type: in vivo, mouse
Settings: 10 mg/kg orally, hippocampi isolated 3 hours after administration, soluble Aβ42 by ELISA; for inhibition in vivo at 10 mg/kg: Mus musculus, po, 3 h, read-out: Aβ42 production inhibitory activity (% inhibition); for Aβ42 production inhibitory activity (% inhibition): 10 mg/kg
Experimental: Measurement of Amyloid β Production Inhibition Rate Using Primary Nerve Cell
C57BL/6J mice (7-10 weeks old) were purchased from CLEA Japan Inc. Mice were housed in groups and kept on a 12h-light; 12h-dark schedule. All mice were given ad libitum access to food and water.
Each test compound was reconstituted in solubilization buffer ([DMSO (Wako)]: [10% Cremophor (Nakarai)+30% polyethylene glycol 400 (Wako)+60% 2 mol/L Citrate buffer (Wako)]=1:9) and orally administrated at 10 mg/kg.
Hippocampi was isolated from animals, 3 hours after test compounds were orally administrated. Hippocampi were homogenized in ice-cold Tris-extraction buffer (50 mmol/L Tris-HCl, pH 7.2, 200 mmol/L sodium chloride, 2% protease-free bovine serum albumin, and 0.01% sodium merthiolate) containing protease inhibitor cocktails (Roche, Switzerland). After centrifugation at 15,000 rpm for 15 minutes, the supernatants were subjected to two-site sandwich ELISA to measure amount of soluble Aβ. Aβ42 was quantitated by two-site sandwich ELISA using BNT77, which recognizes Aβ11-28, as a capture antibody and BC05-HRP as a detector antibody, respectively.

Compound | inhibition in vivo at 10 mg/kg [%] | Aβ42 production inhibitory activity (% inhibition)
COc1nc(-c2nnc3n2CCCC3(Oc2cc(F)c(F)c(F)c2)C(C)(C)O)ccc1-n1cnc(C)c1 (stereo not drawn) [Example 134, 2-{3-[6-methoxy-5-(4-methyl-1H-imidazol-1-yl)pyridin-2-yl]-8-(3,4,5-trifluorophenoxy)-5,6,7,8-tetrahydro[1,2,4]triazolo[4,3-a]pyridin-8-yl}propan-2-ol] | 31 | 
COc1nc(-c2nnc3n2CCC[C@]3(Oc2cc(F)c(F)c(F)c2)C(C)(C)O)ccc1-n1cnc(C)c1 [Example 152, 2-{(8R)-3-[6-methoxy-5-(4-methyl-1H-imidazol-1-yl)pyridin-2-yl]-8-(3,4,5-trifluorophenoxy)-5,6,7,8-tetrahydro[1,2,4]triazolo[4,3-a]pyridin-8-yl}propan-2-ol] | 57 | 
COc1cc(-c2nnc3n2CCCC3(Oc2ccc(Cl)c(C(F)(F)F)c2)C(C)(C)O)ccc1-n1cnc(C)n1 (stereo not drawn) [Example 139, 2-{8-[4-chloro-3-(trifluoromethyl)phenoxy]-3-[3-methoxy-4-(3-methyl-1H-1,2,4-triazol-1-yl)phenyl]-5,6,7,8-tetrahydro[1,2,4]triazolo[4,3-a]pyridin-8-yl}propan-2-ol] | 22 | 
COc1nc(-c2nnc3n2CCCC3(Oc2ccc(Cl)c(F)c2)C(C)(C)O)ccc1-n1cnc(C)c1 (stereo not drawn) [Example 1, 2-{8-(4-chloro-3-fluorophenoxy)-3-[6-methoxy-5-(4-methyl-1H-imidazol-1-yl)pyridin-2-yl]-5,6,7,8-tetrahydro[1,2,4]triazolo[4,3-a]pyridin-8-yl}propan-2-ol] | 40 | 
COc1cc(-c2nnc3n2CCCC3(Oc2ccc(F)c(F)c2)C(C)(C)O)ccc1-c1cnc(C)o1 (stereo not drawn) [Example 92, 2-{8-(3,4-difluorophenoxy)-3-[3-methoxy-4-(2-methyl-1,3-oxazol-5-yl)phenyl]-5,6,7,8-tetrahydro[1,2,4]triazolo[4,3-a]pyridin-8-yl}propan-2-ol] |  | 32
COc1cc(-c2nnc3n2CCCC3(COc2ccc(Cl)cc2)C(C)(C)O)ccc1-c1cnc(C)o1 (stereo not drawn) [Example 127, 2-{8-[(4-chlorophenoxy)methyl]-3-[3-methoxy-4-(2-methyl-1,3-oxazol-5-yl)phenyl]-5,6,7,8-tetrahydro[1,2,4]triazolo[4,3-a]pyridin-8-yl}propan-2-ol] | 21 | 
COc1nc(-c2nnc3n2CCCC3(Oc2cc(F)c(F)c(F)c2)C(C)(C)O)ccc1-c1cnc(C)o1 (stereo not drawn) [Example 172, 2-{3-[6-methoxy-5-(2-methyl-1,3-oxazol-5-yl)pyridin-2-yl]-8-(3,4,5-trifluorophenoxy)-5,6,7,8-tetrahydro[1,2,4]triazolo[4,3-a]pyridin-8-yl}propan-2-ol] | 35 | 
COc1nc(-c2nnc3n2CCCC3(Oc2ccc(F)c(C(F)(F)F)c2)C(C)(C)O)ccc1-n1cnc(C)c1 (stereo not drawn) [Example 2, 2-{8-[4-fluoro-3-(trifluoromethyl)phenoxy]-3-[6-methoxy-5-(4-methyl-1H-imidazol-1-yl)pyridin-2-yl]-5,6,7,8-tetrahydro[1,2,4]triazolo[4,3-a]pyridin-8-yl}propan-2-ol] |  | 48
COc1cc(-c2nnc3n2CCCC3(Oc2ccc(C(F)(F)F)cc2)C(C)(C)O)ccc1-c1cnc(C)o1 (stereo not drawn) [Example 132, 2-{3-[3-methoxy-4-(2-methyl-1,3-oxazol-5-yl)phenyl]-8-[4-(trifluoromethyl)phenoxy]-5,6,7,8-tetrahydro[1,2,4]triazolo[4,3-a]pyridin-8-yl}propan-2-ol] |  | 58
CCC(O)(CC)C1(Oc2ccc(Cl)c(F)c2)CCCn2c(-c3ccc(-c4cnc(C)o4)c(OC)c3)nnc21 (stereo not drawn) [Example 120, 3-{8-(4-chloro-3-fluorophenoxy)-3-[3-methoxy-4-(2-methyl-1,3-oxazol-5-yl)phenyl]-5,6,7,8-tetrahydro[1,2,4]triazolo[4,3-a]pyridin-8-yl}pentan-3-ol] | 21 | 
COc1cc(-c2nnc3n2CCCC3(Oc2cc(F)c(F)c(F)c2)C(C)(C)O)ccc1-c1cnn(C)c1 (stereo not drawn) [Example 144, 2-{3-[3-methoxy-4-(1-methyl-1H-pyrazol-4-yl)phenyl]-8-(3,4,5-trifluorophenoxy)-5,6,7,8-tetrahydro[1,2,4]triazolo[4,3-a]pyridin-8-yl}propan-2-ol] | 31 | 
COc1cc(-c2nnc3n2CCCC3(CC2CC2)c2ccc(F)c(F)c2)ccc1-c1cnc(C)o1 (stereo not drawn) [Example 21, optically active 8-(cyclopropylmethyl)-8-(3,4-difluorophenyl)-3-[3-methoxy-4-(2-methyl-1,3-oxazol-5-yl)phenyl]-5,6,7,8-tetrahydro[1,2,4]triazolo[4,3-a]pyridine] | 39 | 
COc1cc(-c2nnc3n2CCCC3(Oc2cc(F)cc(F)c2)C(C)(C)O)ccc1-c1cnc(C)o1 (stereo not drawn) [Example 141, 2-{8-(3,5-difluorophenoxy)-3-[3-methoxy-4-(2-methyl-1,3-oxazol-5-yl)phenyl]-5,6,7,8-tetrahydro[1,2,4]triazolo[4,3-a]pyridin-8-yl}propan-2-ol] | 46 | 
COc1cc(-c2nnc3n2CCCC3(Oc2cccc(C(F)(F)F)c2)C(C)(C)O)ccc1-c1cnc(C)o1 (stereo not drawn) [Example 103, 2-{3-[3-methoxy-4-(2-methyl-1,3-oxazol-5-yl)phenyl]-8-[3-(trifluoromethyl)phenoxy]-5,6,7,8-tetrahydro[1,2,4]triazolo[4,3-a]pyridin-8-yl}propan-2-ol] | 42 | 
COc1cc(-c2nnc3n2CCCC3(Oc2ccc(F)c(F)c2)C(C)(C)O)ccc1-c1cnc(C)o1 (stereo not drawn) [Example 124, 2-{8-(3,4-difluorophenoxy)-3-[3-methoxy-4-(2-methyl-1,3-oxazol-5-yl)phenyl]-5,6,7,8-tetrahydro[1,2,4]triazolo[4,3-a]pyridin-8-yl}propan-2-ol] | 41 | 
COc1cc(-c2nnc3n2CCCC3(Oc2cccc(C(F)(F)F)c2)C(C)(C)O)ccc1-c1cnc(C)o1 (stereo not drawn) [Example 130, 2-{3-[3-methoxy-4-(2-methyl-1,3-oxazol-5-yl)phenyl]-8-[3-(trifluoromethyl)phenoxy]-5,6,7,8-tetrahydro[1,2,4]triazolo[4,3-a]pyridin-8-yl}propan-2-ol] |  | 59
COc1cc(-c2nnn3c2CCCC3(Oc2cc(F)c(F)c(F)c2)C(C)(C)O)ccc1-c1cnc(C)o1 (stereo not drawn) [Example 186, 2-{3-[3-methoxy-4-(2-methyl-1,3-oxazol-5-yl)phenyl]-7-(3,4,5-trifluorophenoxy)-4,5,6,7-tetrahydro[1,2,3]triazolo[1,5-a]pyridin-7-yl}propan-2-ol] | 22 | 
COc1cc(-c2nnc3n2CCC[C@]3(Oc2cc(F)c(F)c(F)c2)C(C)(C)O)ccc1-c1cnc(C)o1 [Example 122, 2-{(8R)-3-[3-methoxy-4-(2-methyl-1,3-oxazol-5-yl)phenyl]-8-(3,4,5-trifluorophenoxy)-5,6,7,8-tetrahydro[1,2,4]triazolo[4,3-a]pyridin-8-yl}propan-2-ol] | 54 | 
COc1cc(-c2nnc3n2CCCC3(Oc2cc(F)c(F)c(F)c2)C(C)(C)O)c(F)cc1-c1cnc(C)o1 (stereo not drawn) [Example 162, 2-{3-[2-fluoro-5-methoxy-4-(2-methyl-1,3-oxazol-5-yl)phenyl]-8-(3,4,5-trifluorophenoxy)-5,6,7,8-tetrahydro[1,2,4]triazolo[4,3-a]pyridin-8-yl}propan-2-ol] | 26 | 
COc1nc(-c2nnc3n2CCCC3(Oc2ccc(F)c(C(F)(F)F)c2)C(C)(C)O)ccc1-n1cnc(C)c1 (stereo not drawn) [Example 157, 2-{8-[4-fluoro-3-(trifluoromethyl)phenoxy]-3-[6-methoxy-5-(4-methyl-1H-imidazol-1-yl)pyridin-2-yl]-5,6,7,8-tetrahydro[1,2,4]triazolo[4,3-a]pyridin-8-yl}propan-2-ol] | 61 | 
COc1cc(-c2nnc3n2CCCC3(Oc2cc(F)c(F)c(F)c2)C(C)(C)O)ccc1-c1cnc(C)o1 (stereo not drawn) [Example 99, 2-{3-[3-methoxy-4-(2-methyl-1,3-oxazol-5-yl)phenyl]-8-(3,4,5-trifluorophenoxy)-5,6,7,8-tetrahydro[1,2,4]triazolo[4,3-a]pyridin-8-yl}propan-2-ol] | 34 | 
COc1cc(-c2nnc3n2CCCC3(Oc2ccc(C(F)(F)F)cc2)C(C)(C)O)ccc1-c1cnc(C)o1 (stereo not drawn) [Example 104, 2-{3-[3-methoxy-4-(2-methyl-1,3-oxazol-5-yl)phenyl]-8-[4-(trifluoromethyl)phenoxy]-5,6,7,8-tetrahydro[1,2,4]triazolo[4,3-a]pyridin-8-yl}propan-2-ol] |  | 36
COc1cc(-c2nnc3n2CCCC3(Oc2cc(F)cc(F)c2)C(C)(C)O)ccc1-c1cnc(C)o1 (stereo not drawn) [Example 155, 2-{8-(3,5-difluorophenoxy)-3-[3-methoxy-4-(2-methyl-1,3-oxazol-5-yl)phenyl]-5,6,7,8-tetrahydro[1,2,4]triazolo[4,3-a]pyridin-8-yl}propan-2-ol] |  | 56
COc1cc(-c2nnc3n2CCCC3(Oc2ccc(Cl)c(F)c2)C(C)(C)O)ccc1-c1cnc(C)o1 (stereo not drawn) [Example 111, 2-{8-(4-chloro-3-fluorophenoxy)-3-[3-methoxy-4-(2-methyl-1,3-oxazol-5-yl)phenyl]-5,6,7,8-tetrahydro[1,2,4]triazolo[4,3-a]pyridin-8-yl}propan-2-ol] | 46 | 
